Laboratory results from PubChem BioAssay AID248 (DTP/NCI, 2004).
Several values for one entry are separate records, joined by “and”; a condition that tells them apart may be missing. Identical values can stand only once. Toxic doses and inconclusive results are not listed.

Tested on: L1210 leukemia ip in BDF1 mice, survival T/C
Experiment: NCI In Vivo Anticancer Drug Screen. Data for tumor model L1210 Leukemia (intraperitoneal) in B6D2F1 (BDF1) mice
Settings: endpoint: mean survival time, higher = longer survival
In short: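 Antitumor effect is assessed in tumor-bearing animals. Survival in the compound arm is compared with a vehicle-dosed control arm and expressed as their quotient.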

[1] = dose: 100.0 mg/kg/injection, schedule: Q01DX001 (ip), vehicle: carboxymethylcellulose (CMC)
[2] = dose: 200.0 mg/kg/injection, schedule: Q01DX001 (ip), vehicle: carboxymethylcellulose (CMC)
[3] = dose: 400.0 mg/kg/injection, schedule: Q01DX001 (ip), vehicle: carboxymethylcellulose (CMC)
[4] = dose: 400.0 mg/kg/injection, schedule: Q01DX001 (ip), vehicle: saline
[5] = dose: 50.0 mg/kg/injection, schedule: Q04DX002 (ip), vehicle: Klucel (hydroxypropylcellulose) (HPC)
[6] = dose: 100.0 mg/kg/injection, schedule: Q04DX002 (ip), vehicle: Klucel (hydroxypropylcellulose) (HPC)
[7] = dose: 200.0 mg/kg/injection, schedule: Q04DX002 (ip), vehicle: Klucel (hydroxypropylcellulose) (HPC)

In the case of `CCCCCCCCCCCCCCCC(=O)N(CCC)CCC`, the T/C [1] is reported as 98 % of control, the T/C (dose: 100.0 mg/kg/injection, schedule: Q01DX009 (ip), vehicle: carboxymethylcellulose (CMC)) is reported as 105 % of control and 90 % of control and the T/C (dose: 100.0 mg/kg/injection, schedule: Q04DX002 (ip), vehicle: carboxymethylcellulose (CMC)) is reported as 102 % of control. The T/C (dose: 100.0 mg/kg/injection, schedule: Q04DX003 (ip), vehicle: carboxymethylcellulose (CMC)) was 102 % of control, the T/C [2] was 99 % of control and the T/C (dose: 200.0 mg/kg/injection, schedule: Q01DX009 (ip), vehicle: carboxymethylcellulose (CMC)) was 100 % of control and 101 % of control. For the same compound, the T/C (dose: 200.0 mg/kg/injection, schedule: Q04DX002 (ip), vehicle: carboxymethylcellulose (CMC)) was 94 % of control, the T/C (dose: 200.0 mg/kg/injection, schedule: Q04DX003 (ip), vehicle: carboxymethylcellulose (CMC)) was 104 % of control and the T/C [3] was 99 % of control. The T/C (dose: 400.0 mg/kg/injection, schedule: Q04DX002 (ip), vehicle: carboxymethylcellulose (CMC)) was 96 % of control and the T/C (dose: 400.0 mg/kg/injection, schedule: Q04DX003 (ip), vehicle: carboxymethylcellulose (CMC)) was 104 % of control.
In the case of `BrC1(Br)C2C3C=CC4C(C=C3)C4C21` (centres undefined), the T/C (dose: 50.0 mg/kg/injection, schedule: Q01DX001 (ip), vehicle: Klucel (hydroxypropylcellulose) (HPC)) is reported as 105 % of control, the T/C (dose: 100.0 mg/kg/injection, schedule: Q01DX001 (ip), vehicle: Klucel (hydroxypropylcellulose) (HPC)) is reported as 103 % of control and the T/C (dose: 200.0 mg/kg/injection, schedule: Q01DX001 (ip), vehicle: Klucel (hydroxypropylcellulose) (HPC)) is reported as 108 % of control.
`C/C(C/C(C)=N\N=C(N)N)=N/N=C(N)N` was tested, and the T/C (dose: 15.0 mg/kg/injection, schedule: Q01DX Z (ip), vehicle: carboxymethylcellulose (CMC)) was 96 % of control, the T/C (dose: 30.0 mg/kg/injection, schedule: Q01DX Z (ip), vehicle: carboxymethylcellulose (CMC)) was 98 % of control and the T/C (dose: 60.0 mg/kg/injection, schedule: Q01DX Z (ip), vehicle: carboxymethylcellulose (CMC)) was 95 % of control. For the same compound, the T/C (dose: 60.0 mg/kg/injection, schedule: Q01DX Z (oral), vehicle: carboxymethylcellulose (CMC)) was 90 % of control, the T/C (dose: 120.0 mg/kg/injection, schedule: Q01DX Z (ip), vehicle: carboxymethylcellulose (CMC)) was 95 % of control and the T/C (dose: 120.0 mg/kg/injection, schedule: Q01DX Z (oral), vehicle: carboxymethylcellulose (CMC)) was 90 % of control. The T/C (dose: 240.0 mg/kg/injection, schedule: Q01DX Z (oral), vehicle: carboxymethylcellulose (CMC)) was 96 % of control and the T/C (dose: 480.0 mg/kg/injection, schedule: Q01DX Z (oral), vehicle: carboxymethylcellulose (CMC)) was 96 % of control.
In the case of `CCCC1C/C(=C\NC(N)=O)C(=O)O1` (centres undefined), the T/C (dose: 100.0 mg/kg/injection, schedule: Q01DX005 (ip), vehicle: saline with Tween-80) is reported as 100 % of control, the T/C (dose: 100.0 mg/kg/injection, schedule: Q04DX003 (ip), vehicle: saline with Tween-80) is reported as 104 % of control and the T/C (dose: 200.0 mg/kg/injection, schedule: Q01DX005 (ip), vehicle: saline with Tween-80) is reported as 100 % of control. The T/C (dose: 200.0 mg/kg/injection, schedule: Q04DX003 (ip), vehicle: saline with Tween-80) was 96 % of control, the T/C (dose: 400.0 mg/kg/injection, schedule: Q01DX005 (ip), vehicle: saline with Tween-80) was 112 % of control and the T/C (dose: 400.0 mg/kg/injection, schedule: Q04DX003 (ip), vehicle: saline with Tween-80) was 101 % of control.
`CN(C)c1ccc(/C=N/NC(=O)c2cccc3ccccc23)c(Cl)c1` was tested, and the T/C [4] was 90 % of control.
`COc1cc2cc[n+](C)cc2cc1OC` was tested, and the T/C (dose: 50.0 mg/kg/injection, schedule: Q01DX009 (ip), vehicle: saline) was 111 % of control, the T/C (dose: 100.0 mg/kg/injection, schedule: Q01DX009 (ip), vehicle: saline) was 108 % of control and the T/C (dose: 100.0 mg/kg/injection, schedule: Q04DX003 (ip), vehicle: saline) was 104 % of control. For the same compound, the T/C (dose: 200.0 mg/kg/injection, schedule: Q04DX003 (ip), vehicle: saline) was 107 % of control.
With `O/N=C1\CCc2ccccc21` the T/C [5] was 100 % of control, the T/C [6] was 92 % of control and the T/C [7] was 96 % of control.
`COc1ccc(CCNC(=O)c2ccc(Cl)c(Cl)c2)cc1OC` was tested, and the T/C (dose: 25.0 mg/kg/injection, schedule: Q04DX002 (ip), vehicle: saline with Tween-80) was 100 % of control, the T/C (dose: 50.0 mg/kg/injection, schedule: Q04DX002 (ip), vehicle: saline with Tween-80) was 96 % of control and the T/C (dose: 100.0 mg/kg/injection, schedule: Q04DX002 (ip), vehicle: saline with Tween-80) was 106 % of control and 107 % of control.
For `CC(C)N=Cc1ccccc1O.CC(C)N=Cc1ccccc1O.[Co]`, the T/C (dose: 100.0 mg/kg/injection, schedule: Q01DX009 (ip), vehicle: saline sonified) was 108 % of control, the T/C (dose: 100.0 mg/kg/injection, schedule: Q04DX003 (ip), vehicle: Klucel (hydroxypropylcellulose) (HPC)) was 103 % of control and the T/C (dose: 200.0 mg/kg/injection, schedule: Q01DX009 (ip), vehicle: saline sonified) was 100 % of control. The T/C (dose: 200.0 mg/kg/injection, schedule: Q04DX003 (ip), vehicle: Klucel (hydroxypropylcellulose) (HPC)) was 99 % of control and the T/C (dose: 400.0 mg/kg/injection, schedule: Q04DX003 (ip), vehicle: Klucel (hydroxypropylcellulose) (HPC)) was 100 % of control.
`CC(=O)Nc1c(I)cc(I)c(C(=O)O)c1I` was tested, and the T/C (dose: 100.0 mg/kg/injection, schedule: Q04DX003 (ip), vehicle: saline sonified) was 98 % of control, the T/C (dose: 200.0 mg/kg/injection, schedule: Q04DX003 (ip), vehicle: saline sonified) was 101 % of control and the T/C (dose: 400.0 mg/kg/injection, schedule: Q04DX003 (ip), vehicle: saline sonified) was 103 % of control.
With `O=NN(CCCl)C(=O)NC1C=CCCC1` (centres undefined) the T/C (dose: 9.0 mg/kg/injection, schedule: Q01DX001 (ip), vehicle: other) was 117 % of control, the T/C (dose: 20.0 mg/kg/injection, schedule: Q01DX001 (ip), vehicle: other) was 158 % of control and the T/C (dose: 37.0 mg/kg/injection, schedule: Q01DX001 (ip), vehicle: other) was 224 % of control. For the same compound, the T/C (dose: 50.0 mg/kg/injection, schedule: Q01DX001 (ip), vehicle: other) was 175 % of control, the T/C (dose: 75.0 mg/kg/injection, schedule: Q01DX001 (ip), vehicle: other) was 173 % of control and the T/C (dose: 112.0 mg/kg/injection, schedule: Q01DX001 (ip), vehicle: other) was 166 % of control.
For `O=C(Oc1ccccc1)C1OC1c1ccccc1` (centres undefined), the T/C (dose: 100.0 mg/kg/injection, schedule: Q04DX003 (ip), vehicle: alcohol) was 103 % of control, the T/C (dose: 200.0 mg/kg/injection, schedule: Q04DX003 (ip), vehicle: alcohol) was 98 % of control and the T/C (dose: 400.0 mg/kg/injection, schedule: Q04DX003 (ip), vehicle: alcohol) was 105 % of control.
With `COc1ccc(OC)c(NC(=S)N/N=C(\C)c2cc(Cl)ccc2O)c1` the T/C (dose: 12.5 mg/kg/injection, schedule: Q04DX002 (ip), vehicle: Klucel (hydroxypropylcellulose) (HPC)) was 102 % of control, the T/C (dose: 25.0 mg/kg/injection, schedule: Q04DX002 (ip), vehicle: Klucel (hydroxypropylcellulose) (HPC)) was 102 % of control and the T/C [5] was 118 % of control.
`c1ccc(C2=Nc3ccccc3N=C3CCCC32)cc1` (centres undefined) was tested, and the T/C [1] was 103 % of control, the T/C [2] was 100 % of control and the T/C [3] was 97 % of control.
For `O=C(OC1CCC/C=C\CCCC1)c1ccc(Cl)cc1` (centres undefined), the T/C (dose: 200.0 mg/kg/injection, schedule: Q01DX001 (ip), vehicle: saline) was 104 % of control and the T/C [4] was 98 % of control.
For `NC(CC(=O)O)C(=O)OCc1ccccc1` (centres undefined), the T/C (dose: 100.0 mg/kg/injection, schedule: Q01DX009 (ip), vehicle: Klucel (hydroxypropylcellulose) (HPC)) was 95 % of control, the T/C [6] was 92 % of control and the T/C (dose: 200.0 mg/kg/injection, schedule: Q01DX009 (ip), vehicle: Klucel (hydroxypropylcellulose) (HPC)) was 95 % of control. The T/C [7] was 103 % of control and the T/C (dose: 400.0 mg/kg/injection, schedule: Q04DX002 (ip), vehicle: Klucel (hydroxypropylcellulose) (HPC)) was 95 % of control.
